These results are taken from ChEMBL document CHEMBL4411312, “Design, Synthesis, and Biological Evaluation of New 1-(Aryl-1 H-pyrrolyl)(phenyl)methyl-1 H-imidazole Derivatives as Antiprotozoal Agents” (J Med Chem, 2019).

Calls of active or inactive are those of the source. The calls are words filed in the database; no cut-off is given here.

One series concerns Leishmania donovani. The series is described as follows: Antiprotozoal activity against Leishmania donovani MHOM/ET/67/L82 axenic amastigote after 72 hrs by inverted microscopic analysis. The class given is functional, organism-based. As to conditions: MHOM/ET/67/L82, 72 h.
The subject of series [1] is Trypanosoma cruzi. Kind of series: Potency index, ratio of benznidazole IC50 to compound IC50 for Trypanosoma cruzi Tulahuen C2C4 amastigotes infected in rat L6 cells after 96 hrs by inverted microscopic analysis. It counts as functional.
The nature of series [2]: Cytotoxicity against rat L6 cels assessed as reduction in cell viability after 72 hrs by Alamar Blue dye-based fluorometric analysis. As to conditions: L6 cells.
The next series addresses T1, Cytochrome P450 1A2 (Homo sapiens, UniProt P05177).
T1 sequence (P05177 whole entry): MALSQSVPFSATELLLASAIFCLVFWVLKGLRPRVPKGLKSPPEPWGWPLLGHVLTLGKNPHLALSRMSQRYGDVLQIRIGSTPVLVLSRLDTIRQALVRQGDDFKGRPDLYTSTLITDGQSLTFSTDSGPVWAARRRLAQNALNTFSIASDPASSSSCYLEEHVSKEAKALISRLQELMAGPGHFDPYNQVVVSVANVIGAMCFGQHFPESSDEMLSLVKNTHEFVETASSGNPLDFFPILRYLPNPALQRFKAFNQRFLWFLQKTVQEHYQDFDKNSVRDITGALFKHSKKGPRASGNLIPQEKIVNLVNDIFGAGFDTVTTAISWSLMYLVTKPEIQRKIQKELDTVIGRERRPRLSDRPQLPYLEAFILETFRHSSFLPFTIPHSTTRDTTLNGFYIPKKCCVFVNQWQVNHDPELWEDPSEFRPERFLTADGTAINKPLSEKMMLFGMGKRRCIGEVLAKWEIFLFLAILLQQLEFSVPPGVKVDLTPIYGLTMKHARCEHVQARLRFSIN
The series is described as follows: Inhibition of human CYP1A2 in presence of NADPH by luciferase reporter gene assay. It counts as ADME.

For series [3], the target named is Sterol 14-alpha demethylase (Trypanosoma cruzi (strain CL Brener)) (UniProt Q7Z1V1). Kind of series: Binding affinity to Trypanosoma cruzi CYP51 at 5 to 10 uM by UV-vis spectrophotometry.
Chain of Sterol 14-alpha demethylase (Trypanosoma cruzi (strain CL Brener)) (Q7Z1V1 whole entry, looked up): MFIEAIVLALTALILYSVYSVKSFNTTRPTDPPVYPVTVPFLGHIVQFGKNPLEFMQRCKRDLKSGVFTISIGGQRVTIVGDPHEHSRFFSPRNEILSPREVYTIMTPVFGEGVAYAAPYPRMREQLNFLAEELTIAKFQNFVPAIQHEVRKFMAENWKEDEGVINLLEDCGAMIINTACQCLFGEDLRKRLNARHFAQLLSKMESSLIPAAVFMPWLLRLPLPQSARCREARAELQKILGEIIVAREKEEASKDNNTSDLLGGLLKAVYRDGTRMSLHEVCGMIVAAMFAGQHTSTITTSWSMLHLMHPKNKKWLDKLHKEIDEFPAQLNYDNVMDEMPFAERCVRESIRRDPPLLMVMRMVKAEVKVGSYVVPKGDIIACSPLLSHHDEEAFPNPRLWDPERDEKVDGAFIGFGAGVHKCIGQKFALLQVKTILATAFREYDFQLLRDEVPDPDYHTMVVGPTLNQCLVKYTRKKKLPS
A short description of series [4]: Selectivity index, ratio of CC50 for rat L6 cels to IC50 for Leishmania donovani MHOM/ET/67/L82 axenic amastigote. The class given is toxicity. As to conditions: L6 cells, read-out: Ratio IC50.
Series [5] deals with Trypanosoma brucei rhodesiense. Kind of series: Antiprotozoal activity against Trypanosoma brucei rhodesiense STIB900 trypomastigotes after 72 hrs by Alamar Blue dye-based fluorometric analysis. The class given is functional, organism-based. As to conditions: STIB900, 72 h.
Series [6] can be described thus: Selectivity index, ratio of CC50 for rat L6 cels to IC50 for erythrocytic stage of Plasmodium falciparum K1. It counts as toxicity. As to conditions: L6 cells, read-out: Ratio IC50.
A further series addresses Cytochrome P450 2D6 (Homo sapiens, UniProt P10635). Kind of series: Inhibition of human CYP2D6 in presence of NADPH by luciferase reporter gene assay. It counts as ADME. Background: Reporter assays use an easily measured gene product as a stand-in for the process of interest.
A further series has as its target Cytochrome P450 3A4 (Homo sapiens, UniProt P08684). The series is described as follows: Inhibition of human CYP3A4 in presence of NADPH by luciferase reporter gene assay. The class given is ADME.
Series [7] deals with Trypanosoma cruzi. Kind of series: Antiprotozoal activity against Trypanosoma cruzi Tulahuen C2C4 amastigotes infected in rat L6 cells after 96 hrs by inverted microscopic analysis. It counts as functional, organism-based. As to conditions: Tulahuen C2C4, L6, 96 h.
Another series relates to Plasmodium falciparum. The series is described as follows: Antiprotozoal activity against erythrocytic stage of Plasmodium falciparum K1 after 48 hrs by [3H]- hypoxanthine incorporation assay. It counts as functional, organism-based.
For a further series, the target named is T2, CYP1A2 (Homo sapiens, UniProt P05177).
T2 sequence (P05177 whole entry): T1 sequence (P05177 whole entry)
Kind of series: Safety index, ratio of IC50 for test compound to IC50 for furafylline for inhibition of human CYP1A2 in presence of NADPH by luciferase reporter gene assay. As to conditions: read-out: Ratio IC50. The class given is ADME.

A short description of series [8]: Toxicity in BALB/c mouse infected with Trypanosoma cruzi CL Brener trypomastigotes assessed as lack of grooming at 25 mg/kg, ip bid treated for 4 consecutive days starting at 3 days post infection. It counts as organism-based. As to conditions: in vivo, 72 h.
Series [9] deals with Sterol 14-alpha demethylase (Trypanosoma cruzi (strain CL Brener), UniProt Q7Z1V1). Kind of series: Binding affinity to Trypanosoma cruzi CYP51 by UV-vis spectrophotometry.
Chain of Sterol 14-alpha demethylase (Q7Z1V1 whole entry): as the sequence (Q7Z1V1 whole entry, looked up) above
Series [10] concerns Trypanosoma cruzi. The series is described as follows: Antiprotozoal activity against Trypanosoma cruzi CL Brener trypomastigotes infected in BALB/c mouse assessed as reduction in parasitemia at 25 mg/kg, ip bid treated for 4 consecutive days starting at 3 days post infection by bioluminescence assay relative to control. The class given is functional. Details: scale not given: the % may be the effect or the level left.

Series [11] is described as follows: Toxicity in BALB/c mouse infected with Trypanosoma cruzi CL Brener trypomastigotes assessed as reduced mobility at 25 mg/kg, ip bid treated for 4 consecutive days starting at 3 days post infection. As to conditions: in vivo, 72 h. The class given is organism-based.
A short description of series [12]: Toxicity in BALB/c mouse infected with Trypanosoma cruzi CL Brener trypomastigotes assessed as hunched posture at 25 mg/kg, ip bid treated for 4 consecutive days starting at 3 days post infection. The class given is organism-based. As to conditions: in vivo, 72 h.
Series [13] in a line: Toxicity in BALB/c mouse infected with Trypanosoma cruzi CL Brener trypomastigotes assessed as loss of body weight at 25 mg/kg, ip bid treated for 4 consecutive days starting at 3 days post infection. The class given is organism-based. As to conditions: in vivo, 72 h.
The nature of series [14]: Selectivity index, ratio of CC50 for rat L6 cels to IC50 for Trypanosoma brucei rhodesiense STIB900 trypomastigotes. As to conditions: L6 cells, read-out: Ratio IC50. It counts as toxicity.

Chain of Cytochrome P450 3A4 (P08684 whole entry): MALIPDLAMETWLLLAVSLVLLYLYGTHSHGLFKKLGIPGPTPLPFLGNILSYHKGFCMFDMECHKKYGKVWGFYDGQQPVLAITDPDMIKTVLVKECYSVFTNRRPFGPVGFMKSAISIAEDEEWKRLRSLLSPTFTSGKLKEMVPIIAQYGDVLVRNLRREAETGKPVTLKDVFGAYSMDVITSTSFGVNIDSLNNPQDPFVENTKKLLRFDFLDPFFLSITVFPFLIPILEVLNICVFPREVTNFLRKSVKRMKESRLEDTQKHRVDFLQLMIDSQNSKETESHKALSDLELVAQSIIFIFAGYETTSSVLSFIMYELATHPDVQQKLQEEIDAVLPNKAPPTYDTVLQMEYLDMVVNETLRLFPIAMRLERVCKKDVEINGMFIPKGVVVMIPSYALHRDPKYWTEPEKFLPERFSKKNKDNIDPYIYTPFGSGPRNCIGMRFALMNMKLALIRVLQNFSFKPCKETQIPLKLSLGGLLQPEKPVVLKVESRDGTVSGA
Chain of Cytochrome P450 2D6 (P10635 whole entry): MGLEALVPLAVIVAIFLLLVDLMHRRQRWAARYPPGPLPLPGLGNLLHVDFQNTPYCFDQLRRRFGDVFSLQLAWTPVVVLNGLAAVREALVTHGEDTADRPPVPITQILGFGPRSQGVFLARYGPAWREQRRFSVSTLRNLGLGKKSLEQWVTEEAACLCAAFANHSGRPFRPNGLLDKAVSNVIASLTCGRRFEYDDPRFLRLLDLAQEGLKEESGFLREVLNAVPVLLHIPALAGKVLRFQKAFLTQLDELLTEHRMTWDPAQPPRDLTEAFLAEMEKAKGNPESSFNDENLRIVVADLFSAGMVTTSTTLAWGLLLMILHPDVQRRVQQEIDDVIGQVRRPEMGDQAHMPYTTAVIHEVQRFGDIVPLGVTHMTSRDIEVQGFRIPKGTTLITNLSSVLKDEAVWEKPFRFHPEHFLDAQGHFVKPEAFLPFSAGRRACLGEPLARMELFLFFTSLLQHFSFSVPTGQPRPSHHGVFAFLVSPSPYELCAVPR

In the case of `C=CCn1cc(C(c2ccc(Cl)cc2)n2ccnc2)cc1-c1ccc(Cl)cc1` (stereo not drawn), the IC50 (as a rule, the concentration at which inhibition is half-maximal) in the series with Leishmania donovani was 2.16 µM; at Cytochrome P450 1A2 it was 1.2 µM; in series [5] it was 38.7 µM; on Cytochrome P450 2D6 it was 2 µM; at Cytochrome P450 3A4 it was 0.9 µM; in the series on Trypanosoma cruzi [7] it was 0.002 µM. Also, in the series with Plasmodium falciparum, 0.63 µM corresponded to half-maximal inhibition (IC50). Besides, in the series with Trypanosoma cruzi [1], the “Ratio IC50” value was 330 - 825. Besides, the CC50 (as a rule, the concentration giving 50% cytotoxicity) at 72 h in series [2] was 7.76 µM. In addition, in [3], the outcome was Active. For the same compound, the selectivity ratio in series [4] turned out to be 4; in [6], 12.

`Clc1ccc(-c2c[nH]cc2C(c2ccc(Cl)cc2Cl)n2ccnc2)cc1` (racemic): the IC50 is 7 µM at Cytochrome P450 1A2, 1.3 µM at Cytochrome P450 2D6, 0.8 µM on Cytochrome P450 3A4 and 0.035 µM in the series on Trypanosoma cruzi [7]. Further, on CYP1A2, the selectivity ratio turned out to be 3.

For the compound `Clc1ccc(-c2cc(C(c3ccc(Cl)cc3)n3ccnc3)c[nH]2)cc1` (stereo not drawn), the Activity entry was “Non-Toxic” in series [8]; 99.5% with Trypanosoma cruzi [10]; “Non-Toxic” in series [11]; “Non-Toxic” in series [12]; “Non-Toxic” in series [13]. Besides, in series [9], binding was characterised by a dissociation constant (Kd) of 5.5 µM. In addition, the IC50 with Leishmania donovani was 3.01 µM; at Cytochrome P450 1A2, 0.4 µM; in series [5], 7.39 µM; on Cytochrome P450 2D6, 4 µM; at Cytochrome P450 3A4, 1.4 µM; with Trypanosoma cruzi [7] it was 0.003 µM. Further, the IC50 with Plasmodium falciparum amounted to 0.78 µM. Further, the “Ratio IC50” value with Trypanosoma cruzi [1] is 330 - 825. In [2], the CC50 at 72 h came to 6.65 µM. Also, the selectivity ratio in [4] worked out at 2; in series [6] it was 9.

On to `Clc1ccc(C(c2c[nH]cc2-c2ccc3ccccc3c2)n2ccnc2)c(Cl)c1` (stereo not drawn), for which the IC50 in the series on Leishmania donovani was determined as 6.41 µM; in [5], 15.6 µM; with Trypanosoma cruzi [7], 0.018 µM; in the series on Plasmodium falciparum, 0.34 µM. For the same compound, the CC50 at 72 h in series [2] was determined as 6.54 µM. For the same compound, the result in series [3] was Active. The selectivity ratio in series [4] worked out at 1; in series [6], 19.

Regarding `CS(=O)(=O)c1ccc(-c2c[nH]cc2C(c2ccc(Cl)cc2Cl)n2ccnc2)cc1` (stereo not drawn), the selectivity ratio in series [14] turned out to be 2; in [4], 7; in series [6], 52. Besides, the IC50 with Leishmania donovani is 10.2 µM; in series [5] it was 33 µM; in the series with Trypanosoma cruzi [7], 0.029 µM; in the series on Plasmodium falciparum, 1.3 µM. Moreover, the “Ratio IC50” value in the series on Trypanosoma cruzi [1] amounted to 57. In addition, the CC50 at 72 h in [2] is 68 µM.

On to `Cn1cc(C(c2ccc(Cl)cc2)n2ccnc2)cc1-c1ccc(Cl)cc1` (stereo not drawn), for which the Activity entry is recorded as “Non-Toxic” in [8]; 99.4% in the series with Trypanosoma cruzi [10]; “Non-Toxic” in [11]; “Non-Toxic” in [12]; “Non-Toxic” in series [13]. The IC50 in the series on Leishmania donovani amounted to 5.7 µM; on Cytochrome P450 1A2, 2 µM; in series [5] it was 40 µM; on Cytochrome P450 2D6, 3 µM; on Cytochrome P450 3A4 it was 1.1 µM; with Trypanosoma cruzi [7], 0.003 µM. In addition, the IC50 in the series with Plasmodium falciparum was 1.41 µM. Also, in the series on Trypanosoma cruzi [1], the “Ratio IC50” value was 330 - 825. For the same compound, the CC50 at 72 h in [2] turned out to be 12.1 µM. Moreover, the outcome in series [3] was Active. Further, the values for the selectivity ratio in series [4] and in series [6] were 2 and 9, respectively.
